Target: farnesyl diphosphate synthase (Leishmania major)
Test: Inhibitory activity against Leishmania major Farnesyl-diphosphatesynthase (FPP synthase)

IC50 | Structure (SMILES)
> 100 µM | Cc1cc(C)nc(NC(P(=O)(O)O)P(=O)(O)O)c1 [(4,6-dimethyl-2-pyridinyl)-aminomethylene-1,1-bisphosphonate]
> 100 µM | O=P(O)(O)C(Nc1ccc(Cl)nc1)P(=O)(O)O [[(6-Chloro-pyridin-3-ylamino)-phosphono-methyl]-phosphonic acid]
